Results taken from patent US10266564B2, “Cationic lipid cordiarimide hybrid compounds and a process for preparation thereof” (COUNCIL OF SCIENTIFIC & INDUSTRIAL RESEARCH, priority 2014, dated 2019).
“Also recorded” adds a separate entry of the source.

Tests used:
[1] = test system: caspase-3 in HepG2 cells; test: Caspase-3 colorimetric activation assay; format: cell-based, human; conditions: HepG2, 5 and 10 μM, 24 h
Protocol: The activity of caspase-3 was determined using a caspase-3 colorimetric assay kit (Sigma Aldrich) according to the manufacturer's protocol. Briefly, HepG2 cells (1×10^6 cells/well) were treated with 5 and 10 μM of 8i and 8k for 24 h. The cells were harvested and lysed by addition of lysis buffer. Cell lysates were mixed with colorimetric substrate (Ac-DEVD-pNA) and incubated at 37° C. in the dark for 4 h. The absorbance was measured at 405 nm in an ELISA reader. Caspase-3 activity was expressed as the change of the activity compared to the control (FIG. 3).

[2] = target: human ligase I (Homo sapiens, UniProt P18858); test: Ligation assay, DNA ligase I; format: biochemical
human ligase I, sequence (P18858 whole entry): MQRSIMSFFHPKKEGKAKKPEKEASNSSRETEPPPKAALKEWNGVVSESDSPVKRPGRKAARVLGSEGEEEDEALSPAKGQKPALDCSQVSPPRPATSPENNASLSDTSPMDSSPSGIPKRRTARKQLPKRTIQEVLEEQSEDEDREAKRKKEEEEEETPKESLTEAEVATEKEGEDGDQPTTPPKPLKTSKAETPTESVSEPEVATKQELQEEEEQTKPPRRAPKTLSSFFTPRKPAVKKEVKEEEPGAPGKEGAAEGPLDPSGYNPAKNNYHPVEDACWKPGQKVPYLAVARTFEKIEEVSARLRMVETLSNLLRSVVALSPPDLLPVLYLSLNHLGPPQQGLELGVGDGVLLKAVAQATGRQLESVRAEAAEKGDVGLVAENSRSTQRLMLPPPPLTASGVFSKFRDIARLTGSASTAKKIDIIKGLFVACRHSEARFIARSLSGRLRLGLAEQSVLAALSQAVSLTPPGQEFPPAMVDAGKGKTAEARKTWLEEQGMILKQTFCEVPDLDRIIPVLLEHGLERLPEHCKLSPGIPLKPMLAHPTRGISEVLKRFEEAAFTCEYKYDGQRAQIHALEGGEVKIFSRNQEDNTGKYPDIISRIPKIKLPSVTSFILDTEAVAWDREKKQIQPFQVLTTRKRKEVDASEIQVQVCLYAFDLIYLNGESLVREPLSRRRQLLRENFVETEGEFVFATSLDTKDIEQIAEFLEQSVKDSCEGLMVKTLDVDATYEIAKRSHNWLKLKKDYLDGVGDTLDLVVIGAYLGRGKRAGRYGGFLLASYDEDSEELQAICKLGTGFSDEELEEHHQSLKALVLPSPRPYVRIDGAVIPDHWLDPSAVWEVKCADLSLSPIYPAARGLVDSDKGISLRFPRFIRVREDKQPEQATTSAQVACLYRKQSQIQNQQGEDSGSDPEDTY
Source text: (§1) The ligation assay was done strictly following the assay protocol described in Xi Chen et. al, Cancer Res 2008; 68(9):3169-3177. The DNA molecules 52 mer (5′-3′), 28-mer (5′-3′) and 34-mer (5′-3′) were used to construct a double stranded nicked substrate for the ligase enzyme (FIG. 4). The 34-mer oligo was labelled with 32P-AMP to form a substrate for ligase and to form a ligase-AMP intermediate. During ligation, the ligase would transfer the AMP to the nick forming a phosphodiester bond and seal the nick. The ligated DNA molecule would be larger in size and run higher up on a 7% Urea-containing denaturing acrylamide gel. If an inhibitor is added to the reaction mixture prior to the addition of ligase, this would lead to an inhibition of ligation and a corresponding loss of labelled ligated product in the gel. We would then be able to calculate the percentage of inhibition of ligation by estimating the amount of ligated product in the lane with no inhibitor and comparing it with the lanes containing different inhibitor molecules or with the same inhibitor molecule at different concentrations.

[3] = test system: PC-3 (human prostate cancer cells); test: MTT assay for cell viability, PC-3; format: cell-based; conditions: 48 h
Protocol: (§2) The human cancer cell lines e.g. HepG2 (hepatocellular carcinoma, ATCC® HB-8065™), PC-3 (human prostate cancer cells, ATCC® CRL-1435™), MCF-7 (breast adenocarcinoma, ATCC® […]), and mouse embryo fibroblasts (NIH/3T3, ATCC® CRL-1658™), used in the present study were obtained from the ATCC (American Type Culture Collection, USA and maintained in RPMI 1640 (Roswell Park Memorial Institute, Merck) with 10% FBS (Merck), supplemented with 1% antibiotic and antimycotic solution (Gibco, USA) at 37° C. in a humidified incubator with 5% CO2. All stock solutions of the compounds were prepared in cell culture grade DMSO (dimethyl sulfoxide) and stored at −20° C. Compounds were diluted in culture media prior to use in experiments. Annexin V-FITC apoptosis detection kits were purchased from Calbiochem. MTT dye was procured from Sigma-Aldrich. All the flow cytometry experiments were performed using a FACScan (Becton Dickinson, Mountain View, Calif.) flow cytometer, equipped with a single 488 nm argon laser.
(§3) Cell viability was assessed by MTT assay, which is based on the reduction of MTT by mitochondrial dehydrogenases of viable cells to form a purple formazan product. Briefly, cells (5-6×10^3/well) were plated in 96 well plates. After incubating overnight, the cells were treated with […] different concentrations (100, 50, 20, 10, 5, 2.5, 1.25 μM) in triplicates with the cationic lipidated cordiarimide and intermediates for 48 h. Subsequently, 10 μL of MTT (10 mg/mL) was added to each well and incubated for 3 h. The MTT formazan formed by viable cells was dissolved in 100 μL of DMSO and shaken for 10 min. The absorbance was measured on an ELISA reader. Each test was repeated at least three times. The concentration of the compound which gives the 50% growth inhibition value corresponding to IC50, was calculated using GraphPad prism 5 software. In the present invention we have screened 26 lipidated cordiarimides and the results are described in table 1.

[4] = test system: HepG2 cells; test: Cell cycle analysis, PI staining by flow cytometry; format: cell-based, human; conditions: HepG2, 24 h, 5, 10, and 20 mM as printed
Protocol: For cell cycle distribution studies after treatment with different molar concentrations of 8i and 8k, HepG2 cells were fixed overnight in 70% ethanol, rehydrated in PBS with ribonuclease A (100 μg/ml) and Triton-X (1%) for 30 min at room temperature then PI (at 50 μg/ml) was added and incubated in the dark for 30 min and analyzed with a flow cytometer. Experiments were repeated two times independently.

[5] = target: ligase IV (Homo sapiens, UniProt P49917); test: Ligation assay, DNA ligase IV; format: biochemical
ligase IV, sequence (P49917 whole entry): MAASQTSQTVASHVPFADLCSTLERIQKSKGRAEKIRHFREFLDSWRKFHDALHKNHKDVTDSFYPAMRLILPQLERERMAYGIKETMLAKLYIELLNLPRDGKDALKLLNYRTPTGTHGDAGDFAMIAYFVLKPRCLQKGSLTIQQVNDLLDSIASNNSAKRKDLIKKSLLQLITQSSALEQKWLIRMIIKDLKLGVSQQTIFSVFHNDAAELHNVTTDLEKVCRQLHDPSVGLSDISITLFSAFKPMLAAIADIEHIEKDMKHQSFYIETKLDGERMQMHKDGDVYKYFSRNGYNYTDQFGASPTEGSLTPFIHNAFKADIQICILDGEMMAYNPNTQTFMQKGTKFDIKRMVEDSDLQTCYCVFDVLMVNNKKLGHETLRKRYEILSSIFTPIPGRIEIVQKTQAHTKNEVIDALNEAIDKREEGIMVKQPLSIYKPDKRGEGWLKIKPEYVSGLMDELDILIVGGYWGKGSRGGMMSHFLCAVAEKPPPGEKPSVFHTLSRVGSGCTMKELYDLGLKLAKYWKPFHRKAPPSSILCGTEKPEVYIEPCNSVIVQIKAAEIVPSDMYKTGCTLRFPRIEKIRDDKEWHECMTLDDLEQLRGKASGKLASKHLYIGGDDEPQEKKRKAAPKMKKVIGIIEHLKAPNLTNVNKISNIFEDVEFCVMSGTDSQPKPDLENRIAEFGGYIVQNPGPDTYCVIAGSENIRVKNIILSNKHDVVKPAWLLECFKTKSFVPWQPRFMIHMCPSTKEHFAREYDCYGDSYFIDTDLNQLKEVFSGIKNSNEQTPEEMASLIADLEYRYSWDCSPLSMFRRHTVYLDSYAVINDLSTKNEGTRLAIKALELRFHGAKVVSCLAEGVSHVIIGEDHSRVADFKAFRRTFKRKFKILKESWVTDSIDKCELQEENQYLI
ligase IV, sequence (Q13426 whole entry partner): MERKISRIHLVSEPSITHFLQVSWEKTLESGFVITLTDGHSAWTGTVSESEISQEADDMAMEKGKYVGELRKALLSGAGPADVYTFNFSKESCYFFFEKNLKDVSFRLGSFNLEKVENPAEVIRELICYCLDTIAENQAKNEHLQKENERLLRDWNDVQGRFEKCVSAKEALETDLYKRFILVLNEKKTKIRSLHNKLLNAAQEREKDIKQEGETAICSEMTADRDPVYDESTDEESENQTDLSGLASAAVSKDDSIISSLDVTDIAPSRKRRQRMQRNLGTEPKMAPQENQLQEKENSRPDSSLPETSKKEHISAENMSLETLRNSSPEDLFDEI
Source text: as §1

[6] = target: T1, T4 DNA ligase (Enterobacteria phage T4, UniProt P00970); test: Ligation assay, T4 DNA ligase control; format: biochemical; conditions: 5 μM
T1 sequence (P00970 1-487): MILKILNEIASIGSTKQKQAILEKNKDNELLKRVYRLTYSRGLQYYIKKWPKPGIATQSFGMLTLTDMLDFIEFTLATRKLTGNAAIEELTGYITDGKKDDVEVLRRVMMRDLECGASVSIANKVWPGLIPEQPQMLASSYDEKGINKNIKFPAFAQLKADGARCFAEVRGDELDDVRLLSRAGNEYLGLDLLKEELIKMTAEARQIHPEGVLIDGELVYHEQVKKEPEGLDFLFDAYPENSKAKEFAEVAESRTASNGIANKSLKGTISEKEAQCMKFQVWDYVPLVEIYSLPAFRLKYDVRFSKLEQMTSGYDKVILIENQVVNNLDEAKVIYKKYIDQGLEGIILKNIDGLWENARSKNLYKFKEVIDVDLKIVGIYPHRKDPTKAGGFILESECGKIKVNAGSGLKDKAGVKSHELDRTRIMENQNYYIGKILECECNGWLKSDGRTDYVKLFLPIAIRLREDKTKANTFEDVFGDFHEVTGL
Source text: as §1

[7] = test system: HepG2 (hepatocellular carcinoma); test: MTT assay for cell viability, HepG2; format: cell-based, human
Protocol: as §2, §3

[8] = target: hLig1 (Homo sapiens, UniProt P18858); test: Kinetic analysis of ligation inhibition (Lineweaver-Burk); format: biochemical; conditions: 5 and 10 μM
hLig1, sequence (P18858 whole entry): as the sequence (P18858 whole entry) above
Protocol: We measured the kinetics of hLig1 mediated ligation in the absence are presence of 8k at 5 and 10 μM concentrations and drew Lineweaver-Burk plots (FIG. 6B).

[9] = test system: MCF-7 (breast adenocarcinoma); test: MTT assay for cell viability, MCF-7; format: cell-based, human
Protocol: as §2, §3

[10] = test system: HepG2, NH/3T3, PC-3, MCF-7 cell lines; test: MTT assay, summary over the cell line panel; format: cell-based; conditions: across tested cell lines
Protocol: as §2, §3

[11] = test system: mouse embryo fibroblasts (NIH/3T3); test: MTT assay for cell viability, NIH/3T3; format: cell-based; conditions: NIH3T3, 48 h
Protocol: as §2, §3

## CCCCCCCCCCCC[N+](C)(CCCCCCCCCCCC)CC(=O)NC1CCC(=O)N(CC(=O)c2ccccc2)C1=O (centres unmarked) [Compound 8k, {[2,6-Dioxo-1-(2-oxo-2-phenyl-ethyl)-piperidin-3-ylcarbamoyl]-methyl}-Didodecyl-methyl-ammonium iodide]
[1]
  caspase-3 activation: activated the caspase-3 in HepG2 cells dose dependently; also recorded: activated the casepase-3 in HepG2 cells dose dependently
[2]; 1 μM
  inhibition at 1 µM: ~50%
[2]; 10 μM
  inhibition of ligase I activity: complete inhibition
[2]; screening, FIG. 4 and FIG. 7
  DNA ligase I / ligation inhibition (in words): most prolific inhibitor of ligation; also recorded: inhibition of DNA ligase I activity; also recorded: showed inhibition of DNA ligation
[3]
  IC50: 5.61 µM
[3]; Homo sapiens
  IC50: 5.6 µM
[4]
  effect on cell cycle progression: significant accumulation of cells in G0/G1 phase; also recorded: blocked the cell cycle in G0/G1 phase
[5]; 5 μM
  inhibition of ligase IV: No appreciable inhibition
[5]; even at higher concentrations
  effect on ligase IV activity: no effect
[6]
  inhibition of T4 ligase: No appreciable inhibition
[7]; 48 h
  IC50: 1.87 µM
[7]; Homo sapiens, HepG2, 48 h
  IC50: 1.8 µM
[8]
  mode of inhibition by enzyme kinetics: un-competitively
[9]; 48 h
  IC50: > 20 µM
[9]; Homo sapiens, MCF7, 48 h
  IC50: 26.3 µM
[10]
  antiproliferative / anticancer activity (in words): selective anti-proliferative activity at lower concentrations
[11]
  IC50: > 20 µM
